Test results: US12252488B2 (Nimbus Saturn, Inc., priority 2021, dated 2025)

biological target: T1, HPK1 (Homo sapiens, UniProt Q92918); assay: HPK1 biochemical enzyme assay (microfluidic mobility shift assay); conditions: 1000 uM (1 mM) ATP; Caliper mobility shift; 1.5 nM HPK1; 30 min preincubation; read-out: HPK1 1000UMATP caliper IC50
T1 construct: purchased Invitrogen
Procedure, shortened: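 Microfluidic mobility-shift readout with 1.5 nM HPK1 in pH 7.4 buffer; compounds (ten-point curves, top 3 μM final) preincubated 30 min with enzyme/substrate. Reaction started with 1 mM ATP and 1 μM substrate plus 5 mM MgCl2, run 60 min at RT. IC50 values binned into activity classes.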

T1 sequence (Q92918 whole entry): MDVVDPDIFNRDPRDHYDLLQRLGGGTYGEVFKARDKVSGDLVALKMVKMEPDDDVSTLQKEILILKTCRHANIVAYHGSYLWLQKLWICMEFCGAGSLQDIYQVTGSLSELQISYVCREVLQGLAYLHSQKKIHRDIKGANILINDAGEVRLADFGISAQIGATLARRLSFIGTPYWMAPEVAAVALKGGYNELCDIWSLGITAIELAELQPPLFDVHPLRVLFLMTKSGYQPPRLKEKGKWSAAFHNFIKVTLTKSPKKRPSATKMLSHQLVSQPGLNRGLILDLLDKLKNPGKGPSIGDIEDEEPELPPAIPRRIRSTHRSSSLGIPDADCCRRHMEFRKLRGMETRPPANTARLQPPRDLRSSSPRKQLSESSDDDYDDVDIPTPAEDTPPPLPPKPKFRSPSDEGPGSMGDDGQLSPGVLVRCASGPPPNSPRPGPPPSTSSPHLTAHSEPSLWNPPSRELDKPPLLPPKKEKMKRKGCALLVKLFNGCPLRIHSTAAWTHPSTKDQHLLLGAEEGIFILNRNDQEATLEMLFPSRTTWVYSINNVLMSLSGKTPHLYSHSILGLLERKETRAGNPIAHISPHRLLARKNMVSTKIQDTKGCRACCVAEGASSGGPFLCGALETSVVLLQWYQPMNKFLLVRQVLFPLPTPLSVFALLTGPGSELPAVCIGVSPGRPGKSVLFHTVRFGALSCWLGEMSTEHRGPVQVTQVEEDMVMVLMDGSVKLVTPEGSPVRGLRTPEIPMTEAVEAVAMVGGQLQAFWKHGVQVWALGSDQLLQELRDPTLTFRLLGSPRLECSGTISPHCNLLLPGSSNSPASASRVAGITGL

| IC50 [nM] | SMILES |
| --- | --- |
| 100 to 1000 | Cc1cc(F)c(-c2cc(Nc3ccc(N4CCC(O)CC4)cn3)c3c(=O)[nH]ccc3n2)cc1C [I-86, 2-(2-fluoro-4,5-dimethyl-phenyl)-4-[[5-(4-hydroxy-1-piperidyl)-2-pyridyl]amino]-6H-1,6-naphthyridin-5-one] |
| 100 to 1000 | O=c1[nH]ccc2nc(N3CC[C@@H](O)C3)cc(Nc3ccc(N4CCC(O)CC4)cn3)c12 [I-87, 4-[[5-(4-hydroxy-1-piperidyl)-2-pyridyl]amino]-2-[(3R)-3-hydroxy-pyrrolidin-1-yl]-6H-1,6-naphthyridin-5-one] |
| ≤ 100 | O=c1[nH]ccc2nc(N3CC[C@H](O)C3)cc(Nc3ccc(N4CCC(O)CC4)cn3)c12 [I-88, 4-[[5-(4-hydroxy-1-piperidyl)-2-pyridyl]amino]-2-[(3S)-3-hydroxy-pyrrolidin-1-yl]-6H-1,6-naphthyridin-5-one] |
| > 1000 | Cc1c[nH]c(=O)c2c(Nc3ccc(N4CCC(O)CC4)cn3)cc(C(C)C)nc12 [I-89, 4-[[5-(4-hydroxy-1-piperidyl)-2-pyridyl]amino]-2-isopropyl-8-methyl-6H-1,6-naphthyridin-5-one] |
| 100 to 1000 | Cc1c[nH]c(=O)c2c(Nc3ccc(N4CCC(O)CC4)cn3)ccnc12 [I-90, 4-[[5-(4-hydroxy-1-piperidyl)-2-pyridyl]amino]-8-methyl-6H-1,6-naphthyridin-5-one] |
| ≤ 100 | COc1ccc(F)c(-c2cc(Nc3ccc(N4CCNCC4)cn3)c3c(=O)[nH]ccc3n2)c1F [I-91, 2-(2,6-difluoro-3-methoxy-phenyl)-4-[(5-piperazin-1-yl-2-pyridyl)amino]-6H-1,6-naphthyridin-5-one] |
| 100 to 1000 | COc1ccc(F)c(-c2cc(Nc3ccc(N4CCC(O)CC4)cn3)c3c(=O)[nH]ccc3n2)c1F [I-92, 2-(2,6-difluoro-3-methoxyphenyl)-4-((5-(4-hydroxypiperidin-1-yl)pyridin-2-yl)amino)-1,6-naphthyridin-5(6H)-one] |
| ≤ 100 | O=C(c1ccc(F)c(-c2cc(Nc3ccc(N4CCC(O)CC4)cn3)c3c(=O)[nH]ccc3n2)c1)N1CCCC1 [I-93, 2-[2-fluoro-5-(pyrrolidine-1-carbonyl)phenyl]-4-[[5-(4-hydroxy-1-piperidyl)-2-pyridyl]amino]-6H-1,6-naphthyridin-5-one] |
| ≤ 100 | O=C(c1ccc(F)c(-c2cc(Nc3ccc(N4CCC(O)CC4)cn3)c3c(=O)[nH]ccc3n2)c1)N1CCCCC1 [I-94, 2-[2-fluoro-5-(piperidine-1-carbonyl)phenyl]-4-[[5-(4-hydroxy-1-piperidyl)-2-pyridyl]amino]-6H-1,6-naphthyridin-5-one] |
| 100 to 1000 | O=C(c1ccc(F)c(-c2cc(Nc3ccc(N4CCC(O)CC4)cn3)c3c(=O)[nH]ccc3n2)c1)N1CCC1 [I-95, 2-[5-(azetidine-1-carbonyl)-2-fluoro-phenyl]-4-[[5-(4-hydroxy-1-piperidyl)-2-pyridyl]amino]-6H-1,6-naphthyridin-5-one] |
| 100 to 1000 | CC(C)(C)c1ccc(F)c(-c2cc(Nc3ccc(N4CCC(O)CC4)cn3)c3c(=O)[nH]ccc3n2)c1 [I-96, 2-(5-tert-butyl-2-fluoro-phenyl)-4-[[5-(4-hydroxy-1-piperidyl)-2-pyridyl]amino]-6H-1,6-naphthyridin-5-one] |
| 100 to 1000 | O=c1[nH]ccc2nc(-c3cc(C4CCC4)ccc3F)cc(Nc3ccc(N4CCC(O)CC4)cn3)c12 [I-97, 2-(5-cyclobutyl-2-fluoro-phenyl)-4-[[5-(4-hydroxy-1-piperidyl)-2-pyridyl]amino]-6H-naphthyridin-5-one] |
| ≤ 100 | N#CCc1ccc(F)c(-c2cc(Nc3ccc(N4CCC(O)CC4)cn3)c3c(=O)[nH]ccc3n2)c1 [I-98, 2-[4-fluoro-3-[4-[[5-(4-hydroxy-1-piperidyl)-2-pyridyl]amino]-5-oxo-6H-1,6-naphthyridin-2-yl]phenyl] acetonitrile] |
| 100 to 1000 | CC(C)c1cccc(-c2cc(Nc3ccc(N4CCC(O)CC4)cn3)c3c(=O)[nH]ccc3n2)c1 [I-99, 4-[[5-(4-hydroxy-1-piperidyl)-2-pyridyl]amino]-2-(3-isopropyl-phenyl)-6H-1,6-naphthyridin-5-one] |
| ≤ 100 | COc1cc(OC)cc(-c2cc(Nc3ccc(N4CCC(O)CC4)cn3)c3c(=O)[nH]ccc3n2)c1 [I-100, 2-(3,5-dimethoxyphenyl)-4-[[5-(4-hydroxy-1-piperidyl)-2-pyridyl]amino]-6H-1,6-naphthyridin-5-one] |
| ≤ 100 | CC(C)c1ccc(Cl)c(-c2cc(Nc3ccc(N4CCC(O)CC4)cn3)c3c(=O)[nH]ccc3n2)c1 [I-101, 2-(2-chloro-5-isopropyl-phenyl)-4-[[5-(4-hydroxy-1-piperidyl)-2-pyridyl]amino]-6H-1,6-naphthyridin-5-one] |
| ≤ 100 | CC1(c2ccc(F)c(-c3cc(Nc4ccc(N5CCC(O)CC5)cn4)c4c(=O)[nH]ccc4n3)c2)CC1 [I-102, 2-[2-fluoro-5-(1-methylcyclo-propyl)phenyl]-4-[[5-(4-hydroxy-1-piperidyl)-2-pyridyl]amino]-6H-1,6-naphthyridin-5-one] |

| IC50 [nM] | SMILES |
| --- | --- |
| ≤ 100 | O=c1[nH]ccc2nc(-c3cc(C4COC4)ccc3F)cc(Nc3ccc(N4CCC(O)CC4)cn3)c12 [I-103, 2-[2-fluoro-5-(oxetan-3-yl)phenyl]-4-[[5-(4-hydroxy-1-piperidyl)-2-pyridyl]amino]-6H-1,6-naphthyridin-5-one] |
| > 1000 | CC(C)(C#N)c1ccc(F)c(-c2cc(Nc3ccc(N4CCC(O)CC4)cn3)c3c(=O)[nH]ccc3n2)c1 [I-104, 2-[4-fluoro-3-[4-[[5-(4-hydroxy-1-piperidyl)-2-pyridyl]amino]-5-oxo-6H-1,6-naphthyridin-2-yl]phenyl]-2-methyl-propane-nitrile] |
| > 1000 | N#CC1(c2ccc(F)c(-c3cc(Nc4ccc(N5CCC(O)CC5)cn4)c4c(=O)[nH]ccc4n3)c2)CC1 [I-105, 1-[4-fluoro-3-[4-[[5-(4-hydroxy-1-piperidyl)-2-pyridyl]amino]-5-oxo-6H-1,6-naphthyridin-2-yl]phenyl] cyclo-propane-carbonitrile] |
| ≤ 100 | O=c1[nH]ccc2nc(-c3cc(OC(F)(F)F)ccc3F)cc(Nc3ccc(N4CCC(O)CC4)cn3)c12 [I-106, 2-[2-fluoro-5-(trifluoro-methoxy)phenyl]-4-[[5-(4-hydroxy-1-piperidyl)-2-pyridyl]amino]-6H-1,6-naphthyridin-5-one] |
| 100 to 1000 | O=c1[nH]ccc2nc(-c3cc4cc[nH]c4cc3F)cc(Nc3ccc(N4CCC(O)CC4)cn3)c12 [I-107, 2-(6-fluoro-1H-indol-5-yl)-4-[[5-(4-hydroxy-1-piperidyl)-2-pyridyl]amino]-6H-1,6-naphthyridin-5-one] |
| ≤ 100 | CN(C(=O)C1CC1)c1ccc(-c2cc(Nc3ccc(N4CCC(O)CC4)cn3)c3c(=O)[nH]ccc3n2)c(F)c1 [I-108, N-[3-fluoro-4-[4-[[5-(4-hydroxy-1-piperidyl)-2-pyridyl]amino]-5-oxo-6H-1,6-naphthyridin-2-yl]phenyl]-N-methyl-cyclopropane-carboxamide] |
| ≤ 100 | CC(C)c1ccc(F)c(-c2cc(Nc3ccc(N4CCN(C)CC4)cn3)c3c(=O)[nH]ccc3n2)c1 [I-109, 2-(2-fluoro-5-isopropyl-phenyl)-4-[[5-(4-methyl-piperazin-1-yl)-2-pyridyl]amino]-6H-1,6-naphthyridin-5-one] |
| ≤ 100 | CC(C)c1ccc(F)c(-c2cc(Nc3ccc(N4CCNCC4)cn3)c3c(=O)[nH]ccc3n2)c1 [I-110, 2-(2-fluoro-5-isopropyl-phenyl)-4-[(5-piperazin-1-yl-2-pyridyl)amino]-6H-1,6-naphthyridin-5-one] |
| > 1000 | O=C(Nc1ccc(-c2cc(Nc3ccc(N4CCC(O)CC4)cn3)c3c(=O)[nH]ccc3n2)c(F)c1)C1CCCCC1 [I-111, N-[3-fluoro-4-[4-[[5-(4-hydroxy-1-piperidyl)-2-pyridyl]amino]-5-oxo-6H-1,6-naphthyridin-2-yl]phenyl] cyclohexane carboxamide] |
| > 1000 | COc1cc(-c2cc(Nc3ccc(N4CCC(O)CC4)cn3)c3c(=O)[nH]ccc3n2)c(F)cc1C(=O)N1CCCCC1 [I-112, 2-[2-fluoro-5-methoxy-4-(piperidine-1-carbonyl)phenyl]-4-[[5-(4-hydroxy-1-piperidyl)-2-pyridyl]amino]-6H-1,6-naphthyridin-5-one] |
| 100 to 1000 | Cc1c(C(=O)N2CCCCC2)ccc(-c2cc(Nc3ccc(N4CCC(O)CC4)cn3)c3c(=O)[nH]ccc3n2)c1F [I-113, 2-[2-fluoro-3-methyl-4-(piperidine-1-carbonyl)phenyl]-4-[[5-(4-hydroxy-1-piperidyl)-2-pyridyl]amino]-6H-1,6-naphthyridin-5-one] |
| ≤ 100 | Cc1cc(-c2cc(Nc3ccc(N4CCC(O)CC4)cn3)c3c(=O)[nH]ccc3n2)c(F)cc1C(=O)N1CCCCC1 [I-114, 2-[2-fluoro-5-methyl-4-(piperidine-1-carbonyl)phenyl]-4-[[5-(4-hydroxy-1-piperidyl)-2-pyridyl]amino]-6H-1,6-naphthyridin-5-one] |
| ≤ 100 | O=C(c1ccc(-c2cc(Nc3ccc(N4CCC(O)CC4)cn3)c3c(=O)[nH]ccc3n2)c(F)c1)N1CCCC1 [I-115, 2-[2-fluoro-4-(pyrrolidine-1-carbonyl)phenyl]-4-[[5-(4-hydroxy-1-piperidyl)-2-pyridyl]amino]-6H-1,6-naphthyridin-5-one] |
| 100 to 1000 | CC(C)(O)c1ccc(F)c(-c2cc(Nc3ccc(N4CCC(O)CC4)cn3)c3c(=O)[nH]ccc3n2)c1 [I-116, 2-[2-fluoro-5-(1-hydroxy-1-methyl-ethyl)phenyl]-4-[[5-(4-hydroxy-1-piperidyl)-2-pyridyl]amino]-6H-1,6-naphthyridin-5-one] |
| 100 to 1000 | CN(C)Cc1ccc(F)c(-c2cc(Nc3ccc(N4CCC(O)CC4)cn3)c3c(=O)[nH]ccc3n2)c1 [I-117, 2-[5-[(dimethyl-amino)methyl]-2-fluoro-phenyl]-4-[[5-(4-hydroxy-1-piperidyl)-2-pyridyl]amino]-6H-1,6-naphthyridin-5-one] |
| 100 to 1000 | O=c1[nH]ccc2nc(-c3cc4[nH]ccc4cc3F)cc(Nc3ccc(N4CCC(O)CC4)cn3)c12 [I-118, 2-(5-fluoro-1H-indol-6-yl)-4-[[5-(4-hydroxy-1-piperidyl)-2-pyridyl]amino]-6H-1,6-naphthyridin-5-one] |
